Results published in patent publication US20100234467A1, “METHODS FOR IMPROVING BIOAVAILABILITY OF A RENIN INHIBITOR” (priority 2006, published 2010).

Tested on: Caco-2 cell monolayers
Type: in vitro ADME
Description: Alternatively, the in vitro transporter affinity of a drug substance can be determined and approximated by a Caco-2 cell assay as described, e.g., in […] et al., Pharm. Act. Helv. 71, 309-327 (1996), or as illustrated herein in the Examples. The identification of the transporter protein and the efficacy of a compound to inhibit the efflux system involved may as well be determined in the Caco-2 cell assay. […] Caco-2 cell monolayers grown on PET filters for 21-25 days are used for the transport experiments. The flux of compounds across Caco-2 cell monolayers grown on PET filters as well as across PET filters alone without Caco-2 cells is determined as follows: […] To start the experiment, the medium in the donor compartment (0.35 mL for apical and 1.15 mL for basolateral sides) is replaced with donor solution (compound in HBSS, when relevant containing inhibitor of interest) pre-incubated at 37° C. Aliquots of 150 μL are removed from the donor and the acceptor side after about 1 and 120 min. Transport experiments in both apical-to-basolateral and basolateral-to-apical directions are performed in triplicate at 37° C. in an incubator without shaking. […] Radioactive samples are analyzed by liquid scintillation counting. All other non-radiolabeled samples are kept frozen at -20° C. until analysis by liquid chromatography/tandem mass spectrometry (LC-MS/MS). Transport values of the compounds tested are determined using the following equation (Artursson et al., Biochem. Biophys. Res. Comm. 175: 880-885, 1991): where Papp (cm/min) is the apparent permeability coefficient, ΔQ is the amount of compound found in the acceptor compartment at time t, Δt (min) is the incubation time period, C0 (μg/mL) is the initial concentration of the compound in the donor compartment and A (cm^2) is the surface area of the membrane. […] Under the conditions of this study, the LOQ of absolute radioactivity is 2 dpm for [^14C]-labeled Aliskiren corresponding to 12 nmol/L. Papp values are presented as means±standard deviations of the transport experiments performed (n=3). […]

Row | efflux substrate identification (Caco-2) | intrinsic permeability (human, Caco-2, 120 min) | apical to basolateral flux of marker (Papp, below threshold) (human, Caco-2, 120 min) | Compound
1 | substrate for a prominent efflux system | < 80% |  | COCCCOc1cc(C[C@@H](C[C@H](N)[C@@H](O)C[C@H](C(=O)NCC(C)(C)C(N)=O)C(C)C)C(C)C)ccc1OC [Aliskiren, (2S,4S,5S,7S)-5-amino-4-hydroxy-2-isopropyl-7-[4-methoxy-3-(3-methoxy-propoxy)-benzyl]-8-methyl-nonanoic acid (2-carbamoyl-2-methyl-propyl)-amide hemifumarate]
2 |  |  | < 0.5 ×10⁻⁶ cm/s | OC[C@@H](O)[C@@H](O)[C@H](O)[C@H](O)CO [Mannitol]
